# According to PubChem BioAssay (NCI):
#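 Tested at 5 concentrations; 48 h exposure; 96-well plates; endpoints linearly interpolated, else capped at highest concentration. The concentration for 50% growth inhibition is given as GI50. Definition used: TGI = concentration required for complete inhibition of growth.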
# Experiments:
# Experiment in all cases: inhibition of tumour cell growth, NCI panel, 48 h
# HCC-2998 colon = test system: HCC-2998 colon
# OVCAR-3 ovarian = test system: OVCAR-3 ovarian
# UO-31 renal = test system: UO-31 renal
# UACC-62 melanoma = test system: UACC-62 melanoma
# ACHN renal = test system: ACHN renal
# M14 melanoma = test system: M14 melanoma
# U251 CNS = test system: U251 CNS
# HCT-15 colon = test system: HCT-15 colon
# SN12C renal = test system: SN12C renal
# NCI-H226 lung = test system: NCI-H226 lung
SMILES,TGI (HCC-2998 colon),TGI (OVCAR-3 ovarian),TGI (UO-31 renal),TGI (UACC-62 melanoma),TGI (ACHN renal),TGI (M14 melanoma),TGI (U251 CNS),TGI (HCT-15 colon),TGI (SN12C renal),TGI (NCI-H226 lung),GI50 (HCC-2998 colon),GI50 (HCT-15 colon),GI50 (SN12C renal),GI50 (OVCAR-3 ovarian),GI50 (UO-31 renal),GI50 (NCI-H226 lung),GI50 (UACC-62 melanoma),GI50 (ACHN renal),GI50 (M14 melanoma),GI50 (U251 CNS)
Cc1ccc(S(=O)(=O)N/N=C(/c2nc3ccc([N+](=O)[O-])cc3[nH]c2=O)C(O)c2ccc(C(O)/C(=N\NS(=O)(=O)c3ccc(C)cc3)c3nc4ccc([N+](=O)[O-])cc4[nH]c3=O)cc2)cc1 (stereo not drawn),77.4 µM,> 100 µM,> 100 µM,> 100 µM,> 100 µM,> 100 µM,> 100 µM,,,,,,,,,,,,,
CCOC(=O)COc1ccc2c(C)cc(=O)oc2c1,> 100 µM,> 100 µM,> 100 µM,> 100 µM,> 100 µM,> 100 µM,> 100 µM,> 100 µM,> 100 µM,> 100 µM,,,,,,,,,,
CC(C)(C)C(C#N)(C#N)c1ccc(C(C#N)(C#N)C(C)(C)C)nn1,> 100 µM,> 100 µM,> 100 µM,> 100 µM,> 100 µM,> 100 µM,,> 100 µM,> 100 µM,,,,,,,,,,,
ClC(Cl)[Si]12OCCN(CCO1)CCO2,> 100 µM,> 100 µM,> 100 µM,> 100 µM,> 100 µM,,> 100 µM,,> 100 µM,,,,,,,,,,,
CCc1nc(N)nc(N)c1-c1ccc(N2CCNCC2)cc1,> 100 µM,> 100 µM,> 100 µM,> 100 µM,> 100 µM,> 83.9 µM,> 100 µM,> 100 µM,> 100 µM,> 100 µM,,,,,,,,,,
C=C1C(=O)OC2/C=C(/C)C(OC(C)=O)C/C=C(\C)C(OC(=O)C3(C)OC3C)C(O)C12 (stereo not drawn),> 100 µM,> 100 µM,,> 100 µM,> 100 µM,> 100 µM,> 100 µM,> 100 µM,> 100 µM,> 100 µM,,,,,,,,,,
NS(=O)(=O)OCCCCCCCOS(N)(=O)=O,718 µM,835 µM,680 µM,412 µM,951 µM,579 µM,683 µM,1190 µM,1180 µM,887 µM,,,,,,,,,,
COC(=O)C=Cc1ccc2nncnc2c1 (mixture of isomers),,> 100 µM,> 100 µM,32.2 µM,> 100 µM,42.6 µM,> 100 µM,> 100 µM,> 100 µM,> 100 µM,,,,,,,,,,
COc1cc2c3c(n(C)c(=O)c2cc1OC)-c1ccc(C#N)cc1C3=O,> 100 µM,> 100 µM,> 100 µM,> 100 µM,> 100 µM,> 100 µM,> 100 µM,> 100 µM,> 100 µM,> 100 µM,> 100 µM,> 100 µM,> 100 µM,> 100 µM,> 100 µM,> 100 µM,> 100 µM,> 100 µM,> 100 µM,84.9 µM
Brc1ccc2ns[s+]c2c1,25.8 µM,> 100 µM,> 30.7 µM,> 20.5 µM,> 100 µM,5.88 µM,> 31.6 µM,> 100 µM,> 100 µM,> 100 µM,,,,,,,,,,
Nc1ncnc2c1ncn2C1OC(CO)C(O)C1N (stereo not drawn),,> 100 µM,> 100 µM,> 100 µM,> 100 µM,> 100 µM,> 100 µM,> 100 µM,> 100 µM,> 100 µM,,,,,,,,,,
O=C(Nc1nc2c(ncn2C2OC(CO)C(O)C2O)c(=O)[nH]1)c1ccccc1 (stereo not drawn),,> 100 µM,> 100 µM,> 100 µM,> 100 µM,> 100 µM,> 100 µM,> 100 µM,> 100 µM,> 100 µM,,,,,,,,,,
O=C(CN1C(=O)S/C(=C\C(Cl)=C\c2ccccc2)C1=O)NC1C=CS(=O)(=O)C1 (stereo not drawn),3.75 µM,2.33 µM,2.79 µM,3.16 µM,8.65 µM,4.69 µM,5.9 µM,3.47 µM,5.51 µM,,1.95 µM,0.378 µM,1.27 µM,0.729 µM,1.37 µM,,1.13 µM,0.931 µM,1.31 µM,1.88 µM
O=C(COc1cccc(/C=C2\CSc3ccccc3C2=O)c1)Nc1nccs1,3.13 µM,2.98 µM,2.64 µM,3.12 µM,7.96 µM,4.06 µM,3.21 µM,5 µM,4.46 µM,30.6 µM,1.7 µM,2.17 µM,1.76 µM,1.62 µM,1.29 µM,13.1 µM,1.48 µM,2.66 µM,1.88 µM,1.82 µM
C=CCc1cc(OC)c2c(c1)C(OC)CC(c1ccc(OC)c(OC)c1)O2 (stereo not drawn),> 100 µM,> 100 µM,> 100 µM,> 100 µM,> 100 µM,> 100 µM,> 100 µM,> 100 µM,> 100 µM,,,,,,,,,,,
COc1cc2c(=O)[nH]c3cc([N+](=O)[O-])ccc3c2cc1[N+](=O)[O-],> 100 µM,31.7 µM,> 100 µM,> 100 µM,91.4 µM,> 100 µM,,> 100 µM,> 100 µM,39.2 µM,19.5 µM,7.29 µM,9.97 µM,3.85 µM,2.03 µM,3.25 µM,4.55 µM,3.71 µM,7 µM,
Cc1c(/C=N/N(C)C)oc2c1cc(O)c1ncccc12,> 100 µM,,7.12 µM,45.9 µM,> 100 µM,14.9 µM,> 100 µM,> 100 µM,96.4 µM,48.9 µM,,,,,,,,,,
CCOC(=O)C1(C)CCCCC(=O)N1 (stereo not drawn),> 100 µM,> 100 µM,> 100 µM,> 100 µM,> 100 µM,> 100 µM,> 100 µM,> 100 µM,> 100 µM,,,,,,,,,,,
CC1(c2ccc(Cl)cc2)C2C(=O)NC(=O)C1C(=O)NC2=O (stereo not drawn),> 100 µM,> 100 µM,> 100 µM,> 100 µM,> 100 µM,> 100 µM,,> 100 µM,> 100 µM,,,,,,,,,,,
COc1cccc(/C=C2\COc3ccc(-c4ccccc4)cc3C2=O)c1,3.95 µM,,9.12 µM,12.8 µM,5.59 µM,14.9 µM,3.05 µM,4.72 µM,7.49 µM,6.79 µM,2 µM,1.78 µM,2.33 µM,,2.98 µM,2.57 µM,3.06 µM,2.13 µM,3.87 µM,1.56 µM
COC(=O)CSSCc1ccc([N+](=O)[O-])cc1,41 µM,46.5 µM,27.9 µM,31.5 µM,36.2 µM,46.4 µM,30.8 µM,48 µM,34.1 µM,,,,,,,,,,,
CC1=C(C(=O)Nc2cc(F)c(F)cc2F)C(c2ccc([N+](=O)[O-])cc2)C(C(=O)Nc2cc(F)c(F)cc2F)=C(C)N1,60.5 µM,80.8 µM,70.6 µM,,> 100 µM,> 100 µM,> 100 µM,,> 100 µM,> 100 µM,,,,,,,,,,
O=C1c2ccccc2C(=O)c2c(OCCOCCO)cccc21,,> 100 µM,> 100 µM,19.1 µM,> 100 µM,> 100 µM,> 100 µM,> 100 µM,8.08 µM,,,,,,,,,,,
CC(=O)C1=C(O)C2C3c4c[nH]c5cccc(c45)CC3C(C)(C)N2C1=O (stereo not drawn),63.4 µM,74.3 µM,81.6 µM,> 100 µM,> 100 µM,> 100 µM,> 100 µM,> 100 µM,,71.4 µM,,,,,,,,,,
NC(=O)NC1C(C(N)=O)N(Cc2ccccc2)C(=O)N1Cc1ccccc1 (stereo not drawn),> 100 µM,> 100 µM,> 100 µM,> 100 µM,> 100 µM,> 100 µM,> 100 µM,> 100 µM,,,,,,,,,,,,
Nc1ncnc2c1ncn2C1CC(OCc2ccccc2[N+](=O)[O-])C(CO)O1 (stereo not drawn),> 50 µM,> 50 µM,48 µM,,47.6 µM,> 50 µM,> 50 µM,> 50 µM,> 50 µM,36.3 µM,,,,,,,,,,
COc1cc2nc3cc([N+](=O)[O-])ccc3c(NCCNCC(C)(C)O)c2cc1OC,,1.3 µM,5.93 µM,,4.19 µM,3.05 µM,2.31 µM,12.8 µM,,4.05 µM,,3.4 µM,,0.373 µM,1.85 µM,1.28 µM,,0.657 µM,1.29 µM,0.533 µM
CN1c2ccccc2N(C(=O)c2ccccc2)C(CC(=O)O)c2cccn21 (stereo not drawn),> 100 µM,> 100 µM,> 100 µM,> 100 µM,> 100 µM,> 100 µM,> 100 µM,> 100 µM,> 100 µM,,,,,,,,,,,
Cc1cc(N2CCN(C)CC2)n2nc(-c3ccc(Cl)cc3)nc2n1,,> 100 µM,,> 100 µM,> 100 µM,> 100 µM,> 100 µM,> 100 µM,> 100 µM,> 100 µM,,,,,,,,,,
CCSc1c2ccccc2c(-c2nc(F)nc(F)n2)n1CCc1ccccc1,> 100 µM,> 100 µM,> 100 µM,,> 100 µM,> 100 µM,> 100 µM,> 100 µM,> 100 µM,> 100 µM,,,,,,,,,,
